In US10065990B2, “Cyclic peptide compound, and preparation method, pharmaceutical composition and use thereof” (HANGZHOU GUANYU BIO-MEDICAL CO., LTD, priority 2013, dated 2018):
pIC50: −log10 of the molar value. Like-named read-outs stand apart in the source and are kept apart here.

Legend:
[1] = target: T1, HDAC11 (Homo sapiens, UniProt Q96DB2); assay: HDAC biochemical activity measurement (fluorescent substrate deacetylation);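 further: HDAC11 enzyme acting on an acetyl-lysine fluorogenic substrate, then a developer frees the fluorophore, read at excitation 360 nm and emission 460 nm, IC50 over a compound dilution series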
T1 sequence (Q96DB2 1-347): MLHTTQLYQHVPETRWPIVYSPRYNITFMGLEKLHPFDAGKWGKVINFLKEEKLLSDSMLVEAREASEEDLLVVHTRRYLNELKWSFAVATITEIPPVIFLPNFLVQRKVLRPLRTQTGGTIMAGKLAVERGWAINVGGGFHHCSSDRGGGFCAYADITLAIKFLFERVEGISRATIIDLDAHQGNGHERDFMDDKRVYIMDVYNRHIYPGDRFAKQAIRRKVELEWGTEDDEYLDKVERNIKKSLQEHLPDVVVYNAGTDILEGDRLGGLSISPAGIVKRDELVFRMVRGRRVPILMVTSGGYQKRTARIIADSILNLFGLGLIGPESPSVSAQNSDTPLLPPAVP

[2] = target: T2, HDAC7 (Homo sapiens, UniProt Q8WUI4); assay: as above; settings: HDAC7; 37° C. 30 minutes;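 further: fluorogenic deacetylation assay using acetyl-lysine substrate at 20 µM, enzyme and compound incubated 30 min at 37 °C, then developer added, fluorescence read at 360/460 nm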
T2 sequence (Q8WUI4 1-952): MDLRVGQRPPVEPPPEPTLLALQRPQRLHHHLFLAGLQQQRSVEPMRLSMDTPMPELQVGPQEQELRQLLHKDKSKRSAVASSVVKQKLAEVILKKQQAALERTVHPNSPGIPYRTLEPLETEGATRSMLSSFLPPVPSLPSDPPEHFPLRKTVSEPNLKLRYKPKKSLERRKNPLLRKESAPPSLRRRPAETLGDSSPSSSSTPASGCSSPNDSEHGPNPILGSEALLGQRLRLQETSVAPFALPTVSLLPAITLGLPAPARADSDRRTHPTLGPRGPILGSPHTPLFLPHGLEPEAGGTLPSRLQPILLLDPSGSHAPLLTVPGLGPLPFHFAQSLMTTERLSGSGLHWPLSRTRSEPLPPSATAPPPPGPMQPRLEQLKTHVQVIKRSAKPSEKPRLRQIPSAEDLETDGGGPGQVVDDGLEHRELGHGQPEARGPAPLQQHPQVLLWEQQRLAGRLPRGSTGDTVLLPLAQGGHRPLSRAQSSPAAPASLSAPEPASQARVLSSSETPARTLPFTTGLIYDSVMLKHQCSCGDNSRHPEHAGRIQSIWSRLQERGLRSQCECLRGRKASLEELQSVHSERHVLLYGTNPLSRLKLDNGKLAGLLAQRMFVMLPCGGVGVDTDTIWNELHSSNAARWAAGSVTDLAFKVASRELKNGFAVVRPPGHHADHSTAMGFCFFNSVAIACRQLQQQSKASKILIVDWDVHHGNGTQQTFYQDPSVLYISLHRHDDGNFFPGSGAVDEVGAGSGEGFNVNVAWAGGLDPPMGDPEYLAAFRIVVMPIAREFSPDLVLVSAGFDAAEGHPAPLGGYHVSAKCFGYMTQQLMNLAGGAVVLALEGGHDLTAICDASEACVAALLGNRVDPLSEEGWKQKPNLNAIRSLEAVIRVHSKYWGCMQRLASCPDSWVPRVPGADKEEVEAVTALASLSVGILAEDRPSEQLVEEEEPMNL

[3] = target: HDAC2 (Homo sapiens, UniProt Q92769); assay: as above; settings: 37° C. 30 minutes;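 further: HDAC2 enzyme with an acetyl-lysine fluorescent substrate, then developer added, fluorescence read at excitation 360 nm and emission 460 nm, inhibition measured across several compound concentrations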
[4] = test system: HCC827 (human non-small cell lung cancer cells); assay: MTT cancer cell growth inhibition; assay type: cell-based; settings: Homo sapiens, HCC827, 72 h, MTT, 72 hours incubation, HCC827 cells; read-out: GI50 HCC827
How it was run: (§1)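 Cells grown in DMEM or RPMI 1640 with 10% FBS were seeded at 1500/well and left overnight at 37° C., 5% CO2. Compounds at final 10^−5 to 10^−10 M were added in triplicate for 72 h. MTT was then added for 4 h, formazan dissolved in DMSO, and absorbance read at 570 nm to derive GI50.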

[5] = test system: SGC-7901 (human gastric cancer cells); assay: MTT cancer cell growth inhibition; assay type: cell-based; settings: Homo sapiens, SGC-7901, 72 h, MTT, 72 hours incubation, SGC-7901 cells; read-out: GI50 SGC-7901
How it was run: as §1

[6] = test system: K562 (human leukemia cells); assay: MTT cancer cell growth inhibition; assay type: cell-based; settings: Homo sapiens, K562, 72 h, MTT, 72 hours incubation, K562 cells; read-out: GI50 K562
How it was run: as §1

[7] = test system: H1975 (non-small cell lung adenocarcinoma); assay: MTT cancer cell growth inhibition; assay type: cell-based; settings: Homo sapiens, NCI-H1975, 72 h, MTT, 72 hours incubation, H1975 cells; read-out: GI50 H1975
How it was run: as §1

[8] = test system: HT1080 (human fibrosarcoma cells); assay: MTT cancer cell growth inhibition; assay type: cell-based; settings: Homo sapiens, HT-1080, 72 h, MTT
How it was run: as §1

[9] = test system: KBM-5 (human chronic myelogenous leukemia); assay: MTT cancer cell growth inhibition; assay type: cell-based; settings: Homo sapiens, KBM5, 72 h, MTT, 72 hours incubation, KBM-5 cells; read-out: GI50 KBM-5
How it was run: as §1

[10] = test system: KBM5-T315I (human chronic myelogenous leukemia); assay: MTT cancer cell growth inhibition; assay type: cell-based; settings: Homo sapiens, 72 h, MTT, 72 hours incubation, KBM5-T315I cells; read-out: GI50 KBM5-T315I
How it was run: as §1

[11] = test system: N-87 (human gastric cancer cells); assay: MTT cancer cell growth inhibition; assay type: cell-based; settings: Homo sapiens, 72 h, MTT, 72 hours incubation, N-87 cells; read-out: GI50 N-87
How it was run: as §1

[12] = test system: Hela (human cervical cancer cells); assay: MTT cancer cell growth inhibition; assay type: cell-based; settings: Homo sapiens, HeLa, 72 h, MTT
How it was run: as §1

[13] = test system: MDA-MB-231 (breast cancer cells); assay: MTT cancer cell growth inhibition; assay type: cell-based; settings: Homo sapiens, MDA-MB-231, 72 h, read-out: GI50 MDA-MB-231, MTT, 72 hours incubation, MDA-MB-231 cells
How it was run: as §1

[14] = read-out: IC50 HDAC11, HDAC11, 37° C. 30 minutes
[15] = 72 hours, present invention, read-out: GI50 HT1080, a
[16] = 72 hours, present invention, read-out: GI50 Hela, a
[17] = 72 hours incubation, read-out: GI50 HT1
[18] = 72 hours incubation, read-out: GI50 Hela

Sequence of HDAC2 (Q92769 whole entry, species assumed): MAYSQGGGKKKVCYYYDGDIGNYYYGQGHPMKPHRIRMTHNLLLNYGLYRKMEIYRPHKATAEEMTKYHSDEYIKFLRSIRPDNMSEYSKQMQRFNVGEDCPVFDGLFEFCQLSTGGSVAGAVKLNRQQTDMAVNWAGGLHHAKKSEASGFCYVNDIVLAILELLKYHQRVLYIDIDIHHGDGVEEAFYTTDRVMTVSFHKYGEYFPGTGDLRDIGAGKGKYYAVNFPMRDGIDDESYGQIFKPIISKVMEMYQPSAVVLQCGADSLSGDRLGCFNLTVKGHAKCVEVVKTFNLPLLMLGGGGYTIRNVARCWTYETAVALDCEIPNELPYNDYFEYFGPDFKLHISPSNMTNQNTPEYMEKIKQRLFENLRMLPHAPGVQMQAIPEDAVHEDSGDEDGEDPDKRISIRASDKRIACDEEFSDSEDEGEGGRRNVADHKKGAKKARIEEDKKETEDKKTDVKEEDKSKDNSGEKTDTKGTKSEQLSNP

| SMILES | pIC50 [1, 14] | IC50 HDAC7 [2] | pIC50 [3] | GI50 [4] | GI50 [5] | GI50 [6] | GI50 [7] | GI50 ([8]; HT1080 cells, 72 hours incubation, read-out: GI50 HT1) | GI50 [8, 15] | GI50 [9] | GI50 [10] | GI50 [11] | GI50 ([12]; Hela cells, 72 hours incubation, read-out: GI50 Hela) | GI50 [12, 16] | GI50 [13] | pIC50 [1] | GI50 [8, 17] | GI50 [12, 18] |
| --- | --- | --- | --- | --- | --- | --- | --- | --- | --- | --- | --- | --- | --- | --- | --- | --- | --- | --- |
| C/C=C1\NC(=O)c2cccc(n2)CNC(=O)C[C@@H](/C=C/CCSC(=O)CCCCCCC)OC(=O)[C@H](Cc2cccc3ccccc23)NC1=O [Compound 239] | 7.55 | no activity | 7.25 | 31 nM | 35 nM | 63 nM | 91 nM | 10 nM | 11 nM | 29 nM | 23 nM | 46 nM | 11 nM | 11 nM | 25 nM |  |  |  |
| C/C=C1\NC(=O)c2cccc(n2)CNC(=O)C[C@@H](/C=C/CCSC=O)OC(=O)[C@H](C(C)C)NC1=O [Compound 8] |  | no activity | 6.79 | 41 nM | 43 nM | 53 nM | 38 nM |  |  | 51 nM | 63 nM | 34 nM |  |  | 93 nM | 7.01 | 90 nM | 70 nM |
| C/C=C1\NC(=O)c2cccc(n2)CNC(=O)C[C@@H](/C=C/CCS)OC(=O)[C@@H](C)NC1=O [Compound 145] |  | no activity | 7.54 | 78 nM | 18 nM | 32 nM | 31 nM |  |  | 8 nM | 31 nM | 31 nM |  |  | 41 nM | 7.08 | 100 nM | 40 nM |
| C/C=C1\NC(=O)c2cccc(n2)CNC(=O)C[C@@H](/C=C/CCSC(=O)CCCCCCC)OC(=O)[C@H](Cc2ccccc2)NC1=O [Compound 14] | 6.99 | no activity | 7.23 | 18 nM | 43 nM | 36 nM | 62 nM |  | 300 nM | 94 nM | 12 nM | 36 nM |  | 220 nM | 85 nM |  | 300 nM | 220 nM |
| C/C=C1\NC(=O)c2ccc(F)c(n2)CNC(=O)C[C@@H](/C=C/CCSC(=O)CC)OC(=O)[C@H](C(C)C)NC1=O [Example 47] |  | no activity | 7.59 | 43 nM | 49 nM | 39 nM | 29 nM |  |  | 81 nM | 56 nM | 61 nM |  |  | 24 nM | 7.08 | 40 nM | 80 nM |
| C/C=C1\NC(=O)c2nc(ccc2F)CNC(=O)C[C@@H](/C=C/CCSC(=O)CCCCC)OC(=O)[C@H](C(C)C)NC1=O [Compound 36] | 7.07 | no activity | 7.37 | 62 nM | 47 nM | 29 nM | 19 nM |  |  | 61 nM | 57 nM | 39 nM |  |  | 43 nM |  | 60 nM | 60 nM |
